Source: patent US20020065219A1, “Water soluble thiazolyl peptide derivatives” (priority 2000, published 2002)
Values after ≈ are worked out from the molar mass of the structure shown. Like-named read-outs stand apart in the source and are kept apart here.

Tests used:
Assay in all cases: MIC, broth micro dilution assay (NCCLS)
Assay type in all cases: cell-based
[1] = tested on: Enterococcus faecalis A20688; conditions: for MIC: Enterococcus faecalis, A20688, 18 h, read-out: MIC (μg/mL) against Enterococcus faecalis A20688
[2] = tested on: Staphylococcus aureus A15090; conditions: for MIC: Staphylococcus aureus, A15090, 18 h, read-out: MIC (μg/mL) against Staphylococcus aureus A15090
[3] = tested on: Streptococcus pneumoniae A28272; conditions: for MIC: Streptococcus pneumoniae, A28272, 18 h, read-out: MIC (μg/mL) against Streptococcus pneumoniae A28272
[4] = Mueller-Hinton medium, 35° C., 18 hours
[5] = 50% Mueller-Hinton medium and 50% Todd Hewitt medium, 35° C., 18 hours

SMILES | MIC (μg/mL) against Enterococcus faecalis A20688 [1, 4] | MIC (μg/mL) against Staphylococcus aureus A15090 [2, 4] | MIC (μg/mL) against Streptococcus pneumoniae A28272 [3, 5] | MIC (μg/mL) against Enterococcus faecalis A20688 [1] | MIC (μg/mL) against Staphylococcus aureus A15090 [2] | MIC (μg/mL) against Streptococcus pneumoniae A28272 [3] | other results
CO/C(C)=C1/NC(=O)C(C(C)O)NC(=O)c2csc(n2)-c2cc(O)c(-c3nc(C(=O)NC(CN4CCN(C(C)=O)CC4)C(N)=O)cs3)nc2-c2csc(n2)C2COC(=O)c3c4c5c(cccc5n3O)COC(=O)C(O[C@H]3C[C@](C)(O)[C@H](N(C)C)[C@H](C)O3)C(OC4)C(NC(=O)c3csc1n3)c1nc(cs1)C(=O)N2 (stereo partly drawn) [Example 21] | 2.0 µg/mL (≈ 1.28 µM) | 0.5 µg/mL (≈ 0.319 µM) | 0.03 µg/mL (≈ 0.0192 µM) | – | – | – | –
COC(C)=C1NC(=O)C(C(C)O)NC(=O)c2csc(n2)-c2cc(O)c(-c3nc(C(=O)NC(CSCC(NC(C)=O)C(=O)O)C(N)=O)cs3)nc2-c2csc(n2)C2COC(=O)c3c4c5c(cccc5n3O)COC(=O)C(OC3CC(C)(O)C(N(C)C)C(C)O3)C(OC4)C(NC(=O)c3csc1n3)c1nc(cs1)C(=O)N2 (stereo not drawn) [Example 43] | 8.0 µg/mL (≈ 5 µM) | 2.0 µg/mL (≈ 1.25 µM) | 0.125 µg/mL (≈ 0.0781 µM) | – | – | – | –
CO/C(C)=C1/NC(=O)C(C(C)O)NC(=O)c2csc(n2)-c2cc(O)c(-c3nc(C(=O)NC(CNCCCN4CCN(C)CC4)C(N)=O)cs3)nc2-c2csc(n2)C2COC(=O)c3c4c5c(cccc5n3O)COC(=O)C(O[C@H]3C[C@](C)(O)[C@H](N(C)C)[C@H](C)O3)C(OC4)C(NC(=O)c3csc1n3)c1nc(cs1)C(=O)N2 (stereo partly drawn) [Example 51] | – | – | – | 4.0 µg/mL (≈ 2.51 µM) | 0.25 µg/mL (≈ 0.157 µM) | 0.015 µg/mL (≈ 0.00941 µM) | –
CO/C(C)=C1/NC(=O)C(C(C)O)NC(=O)c2csc(n2)-c2cc(O)c(-c3nc(C(=O)NC(CN[C@@H](C)c4ccccc4)C(N)=O)cs3)nc2-c2csc(n2)C2COC(=O)c3c4c5c(cccc5n3O)COC(=O)C(O[C@H]3C[C@](C)(O)[C@H](N(C)C)[C@H](C)O3)C(OC4)C(NC(=O)c3csc1n3)c1nc(cs1)C(=O)N2 (stereo partly drawn) [Example 61] | 0.25 µg/mL (≈ 0.16 µM) | 0.25 µg/mL (≈ 0.16 µM) | 0.03 µg/mL (≈ 0.0192 µM) | – | – | – | –
COC[C@@H]1CCCN1CC(NC(=O)c1csc(-c2nc3c(cc2O)-c2nc(cs2)C(=O)NC(C(C)O)C(=O)N/C(=C(\C)OC)c2nc(cs2)C(=O)NC2c4nc(cs4)C(=O)NC(COC(=O)c4c5c6c(cccc6n4O)COC(=O)C(O[C@H]4C[C@](C)(O)[C@H](N(C)C)[C@H](C)O4)C2OC5)c2nc-3cs2)n1)C(N)=O (stereo partly drawn) [Example 63] | 0.25 µg/mL (≈ 0.161 µM) | 0.125 µg/mL (≈ 0.0805 µM) | 0.03 µg/mL (≈ 0.0193 µM) | – | – | – | –
C/C=C1\NC(=O)C(C(C)O)NC(=O)c2csc(n2)-c2cc(O)c(-c3nc(C(=O)NC(CSCCN(CC)CC)C(N)=O)cs3)nc2-c2csc(n2)C2CSC(=O)c3[nH]c4cccc(c4c3C)COC(=O)C(O)CC(NC(=O)c3csc1n3)c1nc(cs1)C(=O)N2 (stereo not drawn) [Example 102] | – | – | – | – | – | – | MIC [1]: 0.25 µg/mL (≈ 0.184 µM); MIC [2]: 0.125 µg/mL (≈ 0.0922 µM); MIC [3]: 0.03 µg/mL (≈ 0.0221 µM)
CO/C(C)=C1/NC(=O)C(C(C)O)NC(=O)c2csc(n2)-c2cc(O)c(-c3nc(C(=O)NC(CNCCCCN)C(N)=O)cs3)nc2-c2csc(n2)C2COC(=O)c3c4c5c(cccc5n3O)COC(=O)C(O[C@H]3C[C@](C)(O)[C@H](N(C)C)[C@H](C)O3)C(OC4)C(NC(=O)c3csc1n3)c1nc(cs1)C(=O)N2 (stereo partly drawn) [Example 11] | 8.0 µg/mL (≈ 5.24 µM) | 2.0 µg/mL (≈ 1.31 µM) | 0.5 µg/mL (≈ 0.328 µM) | – | – | – | –
CO/C(C)=C1/NC(=O)C(C(C)O)NC(=O)c2csc(n2)-c2cc(O)c(-c3nc(C(=O)NC(CNCc4cc(OC)c(OC)c(OC)c4)C(N)=O)cs3)nc2-c2csc(n2)C2COC(=O)c3c4c5c(cccc5n3O)COC(=O)C(O[C@H]3C[C@](C)(O)[C@H](N(C)C)[C@H](C)O3)C(OC4)C(NC(=O)c3csc1n3)c1nc(cs1)C(=O)N2 (stereo partly drawn) [Example 70] | – | – | – | 4.0 µg/mL (≈ 2.45 µM) | 0.25 µg/mL (≈ 0.153 µM) | 0.06 µg/mL (≈ 0.0367 µM) | –
CO/C(C)=C1/NC(=O)C(C(C)O)NC(=O)c2csc(n2)-c2cc(O)c(-c3nc(C(=O)NC(CN4C[C@H](C)NC[C@@H]4C)C(N)=O)cs3)nc2-c2csc(n2)C2COC(=O)c3c4c5c(cccc5n3O)COC(=O)C(O[C@H]3C[C@](C)(O)[C@H](N(C)C)[C@H](C)O3)C(OC4)C(NC(=O)c3csc1n3)c1nc(cs1)C(=O)N2 (stereo partly drawn) [Example 59] | 2.0 µg/mL (≈ 1.29 µM) | 1.0 µg/mL (≈ 0.644 µM) | 0.25 µg/mL (≈ 0.161 µM) | – | – | – | –
CO/C(C)=C1/NC(=O)C(C(C)O)NC(=O)c2csc(n2)-c2cc(O)c(-c3nc(C(=O)NC(CN4CCN(c5ccncc5)CC4)C(N)=O)cs3)nc2-c2csc(n2)C2COC(=O)c3c4c5c(cccc5n3O)COC(=O)C(O[C@H]3C[C@](C)(O)[C@H](N(C)C)[C@H](C)O3)C(OC4)C(NC(=O)c3csc1n3)c1nc(cs1)C(=O)N2 (stereo partly drawn) [Example 52] | – | – | – | 1.0 µg/mL (≈ 0.625 µM) | 0.5 µg/mL (≈ 0.312 µM) | 0.5 µg/mL (≈ 0.312 µM) | –
COC(C)=C1NC(=O)C(C(C)O)NC(=O)c2csc(n2)-c2cc(O)c(-c3nc(C(=O)NC(CN(C)CCc4ccccn4)C(N)=O)cs3)nc2-c2csc(n2)C2COC(=O)c3c4c5c(cccc5n3O)COC(=O)C(O)C(OC4)C(NC(=O)c3csc1n3)c1nc(cs1)C(=O)N2 (stereo not drawn) [Example 93] | 0.06 µg/mL (≈ 0.0428 µM) | 0.06 µg/mL (≈ 0.0428 µM) | 0.001 µg/mL (≈ 0.000713 µM) | – | – | – | –
COC(C)=C1NC(=O)C(C(C)O)NC(=O)c2csc(n2)-c2cc(O)c(-c3nc(C(=O)NC(CNC(CO)Cc4c[nH]cn4)C(N)=O)cs3)nc2-c2csc(n2)C2COC(=O)c3c4c5c(cccc5n3O)COC(=O)C(OC3CC(C)(O)C(N(C)C)C(C)O3)C(OC4)C(NC(=O)c3csc1n3)c1nc(cs1)C(=O)N2 (stereo not drawn) [Example 66] | 16 µg/mL (≈ 10.1 µM) | 2.0 µg/mL (≈ 1.27 µM) | 2.0 µg/mL (≈ 1.27 µM) | – | – | – | –
CO/C(C)=C1/NC(=O)C(C(C)O)NC(=O)c2csc(n2)-c2cc(O)c(-c3nc(C(=O)NC(CN(CCCN(C)C)CCCN(C)C)C(N)=O)cs3)nc2-c2csc(n2)C2COC(=O)c3c4c5c(cccc5n3O)COC(=O)C(O[C@H]3C[C@](C)(O)[C@H](N(C)C)[C@H](C)O3)C(OC4)C(NC(=O)c3csc1n3)c1nc(cs1)C(=O)N2 (stereo partly drawn) [Example 27] | 2.0 µg/mL (≈ 1.23 µM) | 4.0 µg/mL (≈ 2.46 µM) | 0.0005 µg/mL (≈ 0.000308 µM) | – | – | – | –
CO/C(C)=C1/NC(=O)C(C(C)O)NC(=O)c2csc(n2)-c2cc(O)c(-c3nc(C(=O)NC(CSCC(=O)O)C(N)=O)cs3)nc2-c2csc(n2)C2COC(=O)c3c4c5c(cccc5n3O)COC(=O)C(O[C@H]3C[C@](C)(O)[C@H](N(C)C)[C@H](C)O3)C(OC4)C(NC(=O)c3csc1n3)c1nc(cs1)C(=O)N2 (stereo partly drawn) [Example 4] | – | – | – | – | – | – | MIC [1]: 2 µg/mL (≈ 1.31 µM); MIC [2]: 2 µg/mL (≈ 1.31 µM); MIC [3]: 0.125 µg/mL (≈ 0.0817 µM)
CO/C(C)=C1/NC(=O)C(C(C)O)NC(=O)c2csc(n2)-c2cc(O)c(-c3nc(C(=O)NC(CN(C)CCCn4ccnc4)C(N)=O)cs3)nc2-c2csc(n2)C2COC(=O)c3c4c5c(cccc5n3O)COC(=O)C(O[C@H]3C[C@](C)(O)[C@H](N(C)C)[C@H](C)O3)C(OC4)C(NC(=O)c3csc1n3)c1nc(cs1)C(=O)N2 (stereo partly drawn) [Example 41] | 0.5 µg/mL (≈ 0.317 µM) | 0.5 µg/mL (≈ 0.317 µM) | 0.125 µg/mL (≈ 0.0793 µM) | – | – | – | –
COCCOCCOCCN1CCN(CC(NC(=O)c2csc(-c3nc4c(cc3O)-c3nc(cs3)C(=O)NC(C(C)O)C(=O)NC(=C(C)OC)c3nc(cs3)C(=O)NC3c5nc(cs5)C(=O)NC(COC(=O)c5c6c7c(cccc7n5O)COC(=O)C(OC5CC(C)(O)C(N(C)C)C(C)O5)C3OC6)c3nc-4cs3)n2)C(N)=O)CC1 (stereo not drawn) [Example 72] | – | – | – | 4.0 µg/mL (≈ 2.4 µM) | 4.0 µg/mL (≈ 2.4 µM) | 0.5 µg/mL (≈ 0.299 µM) | –
CO/C(C)=C1/NC(=O)C(C(C)O)NC(=O)c2csc(n2)-c2cc(O)c(-c3nc(C(=O)NC(CNCCNC(C)=O)C(N)=O)cs3)nc2-c2csc(n2)C2COC(=O)c3c4c5c(cccc5n3O)COC(=O)C(O[C@H]3C[C@](C)(O)[C@H](N(C)C)[C@H](C)O3)C(OC4)C(NC(=O)c3csc1n3)c1nc(cs1)C(=O)N2 (stereo partly drawn) [Example 16] | 4.0 µg/mL (≈ 2.6 µM) | 1.0 µg/mL (≈ 0.649 µM) | 0.125 µg/mL (≈ 0.0812 µM) | – | – | – | –
CO/C(C)=C1/NC(=O)C(C(C)O)NC(=O)c2csc(n2)-c2cc(O)c(-c3nc(C(=O)NC(CN(C)CCc4c[nH]cn4)C(N)=O)cs3)nc2-c2csc(n2)C2COC(=O)c3c4c5c(cccc5n3O)COC(=O)C(O[C@H]3C[C@](C)(O)[C@H](N(C)C)[C@H](C)O3)C(OC4)C(NC(=O)c3csc1n3)c1nc(cs1)C(=O)N2 (stereo partly drawn) [Example 56] | – | – | – | 0.5 µg/mL (≈ 0.32 µM) | 0.25 µg/mL (≈ 0.16 µM) | 0.125 µg/mL (≈ 0.08 µM) | –
COC(C)=C1NC(=O)C(C(C)O)NC(=O)c2csc(n2)-c2cc(O)c(-c3nc(C(=O)NC(CN4CCN(Cc5nc(OC)cc(OC)n5)CC4)C(N)=O)cs3)nc2-c2csc(n2)C2COC(=O)c3c4c5c(cccc5n3O)COC(=O)C(OC3CC(C)(O)C(N(C)C)C(C)O3)C(OC4)C(NC(=O)c3csc1n3)c1nc(cs1)C(=O)N2 (stereo not drawn) [Example 77] | – | – | – | 0.5 µg/mL (≈ 0.298 µM) | 0.125 µg/mL (≈ 0.0746 µM) | 0.015 µg/mL (≈ 0.00895 µM) | –
CO/C(C)=C1/NC(=O)C(C(C)O)NC(=O)c2csc(n2)-c2cc(O)c(-c3nc(C(=O)NC(CNCCn4cc([N+](=O)[O-])nc4C)C(N)=O)cs3)nc2-c2csc(n2)C2COC(=O)c3c4c5c(cccc5n3O)COC(=O)C(O[C@H]3C[C@](C)(O)[C@H](N(C)C)[C@H](C)O3)C(OC4)C(NC(=O)c3csc1n3)c1nc(cs1)C(=O)N2 (stereo partly drawn) [Example 68] | 8.0 µg/mL (≈ 4.98 µM) | 2.0 µg/mL (≈ 1.24 µM) | 0.5 µg/mL (≈ 0.311 µM) | – | – | – | –
